Source: US7223733B2, “Modulation of TRIP-Br function and method of treating proliferative disorders” (National University of Singapore, priority 2004, dated 2007)
[invdT] = inverted (3'-3') thymidine

Experiments:
WI-38 fibroblasts = assay: Trypan blue exclusion manual cell count of serum-stimulated WI-38 cells; assay type: cell-based, human; details: WI-38, 0.1 μM, 72 h post-stimulation
Description: (§1) DNA enzyme transfection. WI-38 cells were rendered quiescent by cultivation in serum-free medium for 72 h before being transfected with DNA enzyme (0.1 μM) using Superfect as reported previously (Santiago, F. S., et al. Nat Med 5, 1264-1269 (1999)) in accordance to manufacturer's recommendations (Qiagen).
Cell proliferation assays. For the BrdU incorporation assays, growth-quiescent WI-38 cells in 96-well dishes were transfected with DNA enzyme and/or 100 ng of pCMV/E2F1, pCMV/DP1, pRSV/Cyclin E, or pCMV/Cdk2 and then exposed to Bromodeoxyuridine (BrdU, 100 μM) in the presence or absence of 10% FBS for 20 h. Bromodeoxyuridine (BrdU) incorporation was monitored with a calorimetric ELISA assay using a cell proliferation kit according to manufacturer's recommendations (Boehringer Mannheim). For manual cell count, growth-quiescent WI-38 cells in 24-well dishes were transfected with DNA enzyme and then exposed to 10% FBS for 72 h. The cells were rinsed with PBS, pH 7.4, and trypsinized, and 10 μl of cell suspension was taken from each sample and mixed with equal volume of trypan blue stain (Sigma, 0.4% w/v in 1×PBS). The number of unstained cells was enumerated manually using a hemocytometer. For colony formation assays, growth-quiescent WI-38 cells in 12-well dishes were transfected with DNA enzyme and then exposed to 10% FBS for 120 h. […]

WI-38 cells [1] = assay: BrdU incorporation, serum-induced S phase entry of WI-38 cells; assay type: cell-based, human; details: WI-38, 0.1 μM, 20 h; compared to unstimulated cells
Description: as §1
(§2) Cell proliferation assays. For the BrdU incorporation assays, growth-quiescent WI-38 cells in 96-well dishes were transfected with DNA enzyme and/or 100 ng of pCMV/E2F1, pCMV/DP1, pRSV/Cyclin E, or pCMV/Cdk2 and then exposed to Bromodeoxyuridine (BrdU, 100 μM) in the presence or absence of 10% FBS for 20 h. Bromodeoxyuridine (BrdU) incorporation was monitored with a calorimetric ELISA assay using a cell proliferation kit according to manufacturer's recommendations (Boehringer Mannheim). For manual cell count, growth-quiescent WI-38 cells in 24-well dishes were transfected with DNA enzyme and then exposed to 10% FBS for 72 h. The cells were rinsed with PBS, pH 7.4, and trypsinized, and 10 μl of cell suspension was taken from each sample and mixed with equal volume of trypan blue stain (Sigma, 0.4% w/v in 1×PBS). The number of unstained cells was enumerated manually using a hemocytometer. For colony formation assays, growth-quiescent WI-38 cells in 12-well dishes were transfected with DNA enzyme and then exposed to 10% FBS for 120 h. Cells were stained in situ with crystal violet (0.75% w/v hexamethyl-p-rosaniline chloride [SIGMA], 50% ethanol, 1.75% w/v paraformaldehyde, 0.25% w/v NaCl) for 10 min, and then rinsed thoroughly with deionized water to remove excess stains.
FIG. 13: (A) E-Br1 or E-Br2 suppresses serum-inducible S phase entry. Sub-confluent WI-38 cells were serum-starved for 72 h. Following DNA enzyme transfection, the cultures were re-stimulated with serum and allowed to proliferate in BrdU labeling medium. After 20 h, cells were assayed for BrdU incorporation with a colorimetric ELISA assay. Values represent the average of at least two independent experiments. […] Sub-confluent WI-38 cells were serum-starved for 72 h. […]

hTRIP-Br1 mRNA = assay: Semi-quantitative RT-PCR of intact hTRIP-Br1 transcripts in WI-38 cells; assay type: cell-based, human; details: WI-38, 0.1 μM, 16 h post-stimulation with 10% FBS
Description: as §1
(§3) Semi-quantitative RT-PCR. Following various treatments, WI-38 cells in 6-well culture dish were subjected to total RNA extraction using the TRIZOL® Reagent (Life Technologies). Total RNA (4 μg) was reversed transcribed using oligo-dT and M-MLV reverse transcriptase in a total reaction volume of 20 μl. Polymerase Chain Reactions (PCR) were carried out on 3 μl cDNA sample in the presence of […] deoxyribonucleotide triphosphates (dNTPs) and 40 μM of specific primer pairs in a total reaction volume of 50 μl. […] Post-PCR samples were analyzed by agarose gel electrophoresis.
(§4) FIG. 11: (A) hTRIP-Br1 and hTRIP-Br2 expression is serum-inducible. […] At 24 h post-serum re-stimulation, semi-quantitative RT-PCR analysis was performed on total RNA to assess hTRIP-Br1 and hTRIP-Br2 expression. β-actin was included as an internal control. […] Semi-quantitative RT-PCR analysis was performed on total RNA to assess hTRIP-Br1 and hTRIP-Br2 expression. β-actin was included as an internal control. […]

WI-38 cells [2] = assay: Colony formation assay of WI-38 cells (crystal violet); assay type: cell-based, human; details: WI-38, serum-induced, 72 h
Description: as §1
as §2, with “For colony formation assays, growth-quiescent WI-38 cells in 12-well dishes were transfected with DNA enzyme and then exposed to 10% FBS for 120 h.” left out
FIG. 12: (A) E-Br1 or E-Br2 inhibits cell proliferation. Sub-confluent WI-38 cells were serum-starved for 72 h. Following DNA enzyme transfection, the cultures were re-stimulated with serum and allowed to proliferate. After 72 h, cells were harvested for viable cell count analysis. 10 μl of cell suspension from each sample was mixed with equal volume of 0.4% trypan blue stain. The number of unstained cells was enumerated manually using a hemocytometer. Data represent the average of at least two independent experiments. […] (B) E-Br1 or E-Br2 suppresses colony formation. Sub-confluent WI-38 cells were serum-starved for 72 h. […]

hTRIP-Br2 mRNA = assay: Semi-quantitative RT-PCR of intact hTRIP-Br2 transcripts in WI-38 cells; assay type: cell-based, human; details: WI-38, 0.1 μM, 16 h post-stimulation with 10% FBS
Description: as §1, §3, §4

[3] = test system: caspase-3 protease activity; assay: Caspase assay with Ac-DEVD-AFC in U2OS cells; assay type: cell-based, human; details: 24 h
Description: Caspase assay. Both adherent and detached cells in 6-well dishes were harvested by centrifugation at 2000 rpm for 15 min at 4° C. The resulting cell pellets were incubated in 50 μl of chilled lysis buffer (Clontech) on ice for 10 min. Cell lysates were incubated in a reaction mix containing 10 mM HEPES, 2.0 mM EDTA, 10 mM KCl, 1.5 mM MgCl2, 1.0 mM PMSF, aprotinine, pepstatin A and leupeptine (20 μM each), 6.0 mM DTT and Ac-DEVD-AFC (4.0 μg/ml). Reactions were allowed to proceed at room temperature. Fluorescence readings were taken at 15 min intervals for 1 h using a spectrofluorometer (excitation wavelength: 400 nm; emission wavelength: 505 nm).
(§5) FIG. 6: Caspase assay. (A) Caspase 3 protease activity in U2OS cells exposed to either Eto (Etoposide) for 24 h or 50 μM decoy peptides for 48 or 72 h, were assayed using the Ac-DEVD-AFC fluorogenic substrate. […] Values represent the average +/− standard deviation of two independent experiments. Control: cells cultured in normal growth medium; Vehicle: cells cultured in the presence of 0.5% DMSO; (B) Western blot analysis of PARP cleavage. U2OS cells were exposed to either Eto (Etoposide) for 24 h or 50 μM decoy peptides for 72 h. Lane 1: Vehicle cells (cultured in the presence of 0.5% DMSO for 24 h); Lane 2: 25 μM Eto; Lane 3: 250 μM Eto; Lane 4: Vehicle (cells cultured in the presence of 0.5% DMSO for 72 h); Lane 5: *SCR; Lane 6: *Br1; Lane 7: *Br2.

PARP cleavage = assay: Western blot analysis of PARP cleavage in U2OS cells; assay type: cell-based, human; details: 25 and 250 μM, 24 h
Description: Denaturing SDS-PAGE and western blotting. Proteins from whole cell lysate and IP complexes were separated using standard denaturing polyacrylamide gel electrophoresis as described previously (Hsu, S. I. H., et al. EMBO J 20, 2273-2285 (2001)).
as §5

U2OS cells = assay: Cell cycle synchronization of U2OS cells, flow cytometry; assay type: cell-based, human; details: 75 ng/ml, 22 h, data not shown
Description: Cell synchronization and cell cycle progression analyses. U2OS cells in 6-well dishes were subjected to nocodazole treatment (75 ng/ml) for 22 h. Thereafter, the nocodazole-arrested cultures were released by washing with 1×PBS and grown in DMEM plus 10% FBS containing either vehicle (0.5% DMSO) or 20 μM decoy peptides. Cells were harvested at 4-h intervals for standard Western blot analyses. For the analysis of Geminin protein profile, mock- or cyclin E/Cdk2-transfected U2OS cells were exposed to nocodazole (75 ng/ml) at 3 h post-transfection for 22 h.

FLAG-TRIP-Br1 protein = assay: Immunoprecipitation assay with TB1-27#2 and peptide competition; assay type: binding, human; details: lysates of transfected U2OS cells
Description: In an immunoprecipitation assay, fifty microliters of Protein A-agarose (Amersham) were incubated with 2 ml of TB1-27#2 spent media overnight. Each aliquot of agarose was washed and added to the lysates of variously transfected U2OS cells. The TB1-27 and Cyr61 peptides were separately added into 2 of the reactions while one of the reactions was probed with mouse monoclonal anti-His antibodies instead of […]. The agarose was harvested and washed the next day, and the bound proteins analyzed by SDS-PAGE. The gel was blotted and detected with anti-FLAG antibodies. The results are shown in FIG. 23 (the left panel contains 1/10th of the input of the pre-cleared U2OS cell lysate while the right panel contains the proteins eluted from the Protein A-agarose). […] Anti-DP-1 was used as a positive control for immunoprecipitation since it is known that TRIP-Br1 interacts directly with DP-1.

FLAG-TRIP-Br1 = assay: Western blot with TB1-27#2 and peptide competition; assay type: binding, human; details: lysates of transfected U2OS cells
Description: For Western blot analysis, U2OS cells transfected with the pcDNA3 vector, pcDNA3 vector with TRIP-Br1 insert or TRIP-Br2 insert were harvested. The lysates were separated in a 10% acrylamide gel and blotted onto a transfer membrane. The blot was cut and probed with a mouse monoclonal anti-FLAG antibody or TB1-27#2. For 2 sections, TB1-27 and Cyr61 peptides were added in addition to TB1-27#2 as a source of competition.

5′-C AGCTACTGTGGCTAGCTACAACGACCTGTCAT-3′ (DNA CAGCTACTGTGGCTAGCTACAACGACCTGTCAT; DNA, 3' [invdT], backbone not given here) [E-SCR, reference compound]
effects on WI-38 growth as compared to vehicle-treated cells (WI-38 fibroblasts): no significant effects
BrdU incorporation on serum stimulation (WI-38 cells [1]): approximately twice as much BrdU
serum-inducible steady-state hTRIP-Br1 mRNA level (hTRIP-Br1 mRNA): no effect
colony forming potential (WI-38 cells [2]): colony forming potential similar to the normal and the vehicle-treated controls
serum-inducible steady-state hTRIP-Br2 mRNA level (hTRIP-Br2 mRNA): no effect

COc1cc([C@@H]2c3cc4c(cc3[C@@H](O[C@@H]3O[C@@H]5CO[C@@H](C)O[C@H]5[C@H](O)[C@H]3O)[C@H]3COC(=O)[C@H]23)OCO4)cc(OC)c1O [Etoposide, etoposide, reference compound]
caspase-3 activity [3]: dose-dependent stimulation of caspase-3 activity several orders of magnitude above baseline
PARP cleavage (PARP cleavage): resulted in PARP cleavage in a dose-dependent manner

COC(=O)Nc1nc2ccc(C(=O)c3cccs3)cc2[nH]1 [nocodazole]
cells arrested at the G2/M boundary with 4N DNA content (U2OS cells): more than 90%

DPGHTAAVAQAPPAVAS (Immunogenic peptide from human TRIP-Br1; listed as Homo sapiens) [TB1-27]
effect of competing peptide on TB1-27#2 binding to FLAG-TRIP-Br1 in immunoprecipitation (FLAG-TRIP-Br1 protein): abolished the binding
blocking of TB1-27#2 binding in Western blot (FLAG-TRIP-Br1): able to block the binding
